Source: patent EP0427078A1, “Folinic acid-cyclodextrin inclusion compound” (MAGIS FARMACEUTICI S.p.A., priority 1989, dated 1991)

Assays:
[1] = Acute toxicity (LD50) in the mouse; conditions: in vivo, read-out: LD₅₀
[2] = assay type: physicochemical

For `Nc1nc(=O)c2c([nH]1)NCC(CNc1ccc(C(=O)NC(CCC(=O)O)C(=O)O)cc1)N2C=O` (stereo not shown) [Calcium folinate, calcium folinate], the LD50 [1] was > 7000 mg/kg, the “STABILITY AT pH 2 MICROBIOLOGICAL TITRE AFTER 3 MONTHS” value [2] was 40% and the “STABILITY AT pH 2 MICROBIOLOGICAL TITRE AFTER 6 MONTHS” value [2] was 20%. The “STABILITY AT pH 2 MICROBIOLOGICAL TITRE TIME 0” value [2] was 100%.
